Patent US8318664B2, “Unacylated ghrelin fragments as therapeutic agent in the treatment of obesity” (Alize Pharma SAS, priority 2007, dated 2012)
Entries after “also recorded” stand apart in the source; their conditions may differ. No end group written: not given here.

Legend:
hamster HIT-T15 β-cells = test: MTT cell survival assay in HIT-T15 β-cells; format: cell-based; settings: for cell survival (MTT): serum deprived medium with IFN-γ/TNF-α/IL-1β; for increase of cell survival: serum-free conditions
Description: MTT experiments were also performed in hamster HIT-T15 β-cells, to test the survival effect of UAG (1-28) or its fragments UAG (1-14), UAG (1-18), UAG (1-5) and UAG (17-28) in serum deprived medium, either alone or with IFN-γ/TNF-α/IL-1β. As for the experiments performed on INS-1E β-cells, the peptides were tested at increasing concentrations, ranging from 0.1 nM to 100 nM.
The survival effect of UAG (6-13), UAG (8-13), UAG (8-12), UAG (8-11), UAG (9-12) and UAG (9-11) was assessed in cytokine-treated HIT-T15 β-cells.
The protective effects of peptides UAG (8-13) and UAG (8-12) were found similar to those of UAG (1-14) and UAG (1-18). A peptide made of the inverse sequence of UAG (1-14) and named UAG (14-1), was used as negative control for these experiments (FIG. 5A). […] These effects were however lower than those of UAG (6-13) (FIG. 5B).
UAG fragments with alanine (Ala) substitutions at different amino acid positions (6 to 13) were tested with regards to their survival effects in HIT-T15 hamster β-cells. The cells were cultured in serum deprived medium, either alone or with IFN-γ/TNF-α/IL-1β. The peptides were tested at the concentrations of 1 nM to 100 nM. […] Under treatment with cytokines, where cell survival was reduced by ≈18% with respect to serum starved conditions, all Ala substitutions, except those at positions 10 and 11, completely reversed cell death and brought the survival rate to levels that were even higher than those under serum-free conditions, at both 1 nM and 100 nM concentrations. These effects were similar to those elicited by the original peptide UAG (6-13) (FIG. 11B).
Particularly, the best effect was exerted by Gly 6-UAG (6-13), whereas the lowest was seen using AcSer 6-UAG (6-13), AcSer 6-(D)Pro 7-UAG (6-13) (FIG. 12B).
Hamster HIT-T15 insulin-secreting β-cells were obtained and cultured as described (Refs. 14, 4). INS-1E rat β-cells were kindly provided by Prof. Claes B. Wollheim (University Medical Center, Geneva, Switzerland) and cultured as described (Refs. 14, 4). Cell culture reagents were from Invitrogen (Milano, Italy). Cytokines were from Biosource (Invitrogen, Italy).
Cell survival was assessed by 3-[4,5-dimethylthiazol-2-yl]-2,5diphenyltetrazolium bromide (MTT) as described previously (Ref. 4). Cells were seeded on 96-well plates at a density of 5×10^3 cells/well. After treatments, cells were incubated with 1 mg/ml MTT for ≈1 h. The medium was aspirated, and the formazan product solubilized with 100 μl DMSO. Viability was assessed by spectrophotometry at 570 nm absorbance using a 96-well plate reader.

HIT-T15 β-cells = test: Cytokine-induced apoptosis in HIT-T15 β-cells; format: cell-based, hamster; settings: for antiapoptotic effect (cytokine-induced apoptosis): 24 h serum-free medium with IFN-γ/TNF-α/IL-1β, 1, 10, 100 nM
Description: HIT-T15 β-cells were cultured for 24 h in serum-free medium, either alone or with IFN-γ/TNF-α/IL-1β. In both cell lines, apoptosis increased under cytokine treatment, with respect to serum starvation alone. […] UAG (14-1), the inverse sequence of UAG (1-14), was used as negative control, whereas UAG (1-28), was used as positive control in each experiment.

ob/ob mice = test: ob/ob mice, 4 weeks infusion by Alzet pump; format: in vivo, mouse
Description: Baseline tail vein plasma samples were collected from free-fed and 16 h fasted ob/ob mice 7 and 6 days before pump implantation into K2EDTA coated capillary tubes (Microvette CB300 K2E; Sarstedt, Germany). The animals were then separated into three groups with approximately equivalent weight ranges. Ten week old mice were anesthetized, and a filled Alzet 1004 pump was inserted, delivery portal first, into the peritoneal cavity. The musculoperitoneal and skin layers were then closed using interrupted sutures (Vicryl 5.0 FS-2 absorbable suture). Animals received pumps containing either saline, 10 mg/ml UAG, or 3.5 mg/mL UAG (6-13) (n=8 per group). Alzet 1004 pumps deliver […], and infused 30 μg of hUAG/animal/day (˜600 μg/kg/day) and 10 μg of UAG (6-13)/animal/day (˜200 μg/kg/day).
Blood samples (at 0900-1000) were obtained from fed and fasted animals at weeks 2 and 4 via the tail vein into EDTA Microvette tubes. Glucose levels in tail vein blood were measured directly using a glucometer. On the last day of treatment baseline (fasted) blood samples were taken.
For the experimental data illustrated in FIGS. 14A, 14B, 15 and 16, the animals were obtained from Charles River Laboratories (Maastricht, The Netherlands). Animals (B6.V-Lep^ob/J, Charles River Laboratories, Belgian colony) were received in our animal facilities at 8 weeks of age, and acclimatized in individual cages for 2 weeks before treatments began. They were maintained under standard 12:12 h light:dark conditions, 21° C., and were allowed free access to food and water. The animals were also handled daily to accustom them to the method used for blood collection. The peptides were dissolved in sterile, nonpyrogenic, 0.9% saline (Baxter BV, Utrecht, The Netherlands). D-glucose was obtained from Sigma-Aldrich Chemie BV (Zwijndrecht, The Netherlands), and was dissolved at 400 mg/ml in 0.9% saline. Alzet pumps (model 1004) were obtained from Charles River Laboratories (Maastricht, The Netherlands). Pumps were filled with 0.9% saline, UAG or UAG (6-13) solution under sterile conditions, and pre-incubated in 0.9% saline for at least 48 hours at 37° C. to initiate flow. Blood glucose levels were measured directly from tail vein incisions using a Freestyle mini glucometer and test strips (ART05214 Rev.A; Abbot, Amersfoort, The Netherlands). Plasma insulin levels were assayed by Ultra-sensitive mouse insulin ELISA (Cat. #10-1150-10; Mercodia, Sweden).

[1] = test system: UAG receptor on HIT-T15 pancreatic β-cells; test: Competition with [125I-Tyr4]-UAG for binding sites on HIT-T15 membranes; set-up: species or system hamster
Description: (§1) The ability of the fragment UAG (6-13) to compete in a concentration-dependent manner with [^125I-Tyr^4]-UAG for HIT-T15 (FIG. 10A) and INS-1E (FIG. 10B) binding sites was assayed. As shown in FIGS. 10A and 10B, unlabelled UAG (1-28) and UAG (6-13) competed with a similar efficacy and in a concentration-dependent fashion with [^125I-Tyr^4]-UAG for such binding sites in both cell lines.
(§2) Membranes from hamster HIT-T15 and rat INS-1E pancreatic β-cells were prepared and assayed for the presence of [^125I-Tyr^4]-UAG binding. The ability of UAG fragments to compete with the radioligand for such binding sites has been evaluated as previously described (Ref. 4). Data are presented as mean±S.E.M. of three independent experiments.

[2] = test system: UAG receptor on INS-1E pancreatic β-cells; test: Competition with [125I-Tyr4]-UAG for binding sites on INS-1E membranes; set-up: species or system rat
Description: as §1, §2

[3] = test system: STZ-induced diabetic rats; test: Streptozotocin (STZ)-treated neonatal rats; settings: for animal survival rate: day 9 after STZ
Description: Pregnant female Sprague-Dawley rats (n=10, day 14th-15th of pregnancy) were purchased from Harlan Srl (Italy), caged allowing free access to water and fed with a standard pellet rat diet. Natural birth occurred 6-7 days later. […] Dams were randomly assigned to the five groups and pups from the same litter were assigned to the same group. […] Pups were left with their mothers. All neonates were tested on day 2 for glycosuria using Accu-chek compact plus (Roche). Only those animals that were glycosuric at day 2 after birth were included in the STZ model group. […] Animals were killed at day 70 after birth by decapitation. Blood samples were collected after decapitation and immediately centrifuged at 20,000×g for 2 min at 4° C., and stored at −20° C. until assayed.
After excision, pancreases were removed and weighed. For insulin content determination, pancreases (35-50 mg) were homogenized and centrifuged in 5 ml acid-ethanol (0.15 mol/l HCl in 75% [vol/vol]ethanol) at 1,000 g for 20 min; the supernatants were stored at −80° C. For immunohistochemistry, additional pancreases were fixed in 4% paraformaldehyde fixative for 24 h and embedded in paraffin.
Plasma glucose levels were determined using a glucose analyzer. Insulin was measured from pancreases or from plasma by RIA as previously described (Ref. 15).

[4] = test system: C57BL/6J male mice on high fat diet; test: High fat diet (HFD) pre-diabetic/onset obesity model in C57BL/6J mice; format: in vivo, mouse
Description: In order to assess the effects of UAG and cyclic UAG (6-13) on the metabolic responses to a high fat diet, ten (10) week old C57BL/6J male mice were allowed to acclimatize in the animal facility for 1 week. The mice were fed a standard chow (also referred herein as “normal diet” or “ND”, 9% kcal fat) and were maintained in 12 hour:12 hour light:dark conditions at 21° C. (FIG. 17).
At 11 weeks, the mice were separated into 2 different streams (n=10): the first stream consisted in 4 weeks of normal diet and the second stream consisted in 2 weeks of normal diet followed by 2 weeks of high fat diet (also referred herein as “HFD”, 41% kcal fat) with Intraperitoneal Glucose Tolerance Testing (IPGTT) (also referred herein as “IPGTT”) and Intraperitoneal Insuline Tolerance Testing (also referred herein as “IPITT”). Baseline 24 h food intake and IPGTTs were run before pump implantation (FIG. 17).
Alzet 1004 micro-osmotic pumps containing saline, UAG or cyclic UAG (6-13) were implanted at week 0 of the procedure depicted in FIG. 17 in the mice of the two streams (sc., interscapular) under isoflurane anesthesia and peri-operative carprofen analgesia (5 mg/kg sc.). UAG or cyclic UAG (6-13) peptides were infused at 4 nmol/kg/hr.
Body weight and 24 h food intake were measured weekly for 4 weeks and IPGTTs were performed bi-weekly for 4 weeks. […] The suppression in body weight gain observed in peptide-treated mice can therefore not be explained by a reduced food intake.
GTTs were performed following a 6 h fast starting at 8 am, then ˜100 μl of blood was collected from the tail vein (t=0) for measurement of insulin under fasting conditions (no anesthesia). Mice were injected ip. with 2 g/kg glucose in saline solution. Glucose was then measured using a glucometer using ˜0.5 μl of tail vein blood at t=0, 15, 30, 45, 60 and 120 minutes. During the GTT at wk 4 samples of ˜25 μl of tail vein blood were also collected at 15, 30 and 120 minutes for insulin determination.
The day after the final IPGTT, mice were fasted for 4 h starting at 8 am, then injected with human insulin (Actrapid, Novo Nordisk) at 0.5 IU/kg. Glucose in tail vein blood (˜0.5 μl) was measured with a glucometer at t=0, 15, 30, 45, 60 and 120 minutes (no anesthesia).
Tail vein blood glucose was measured by glucometer biweekly from free-fed mice in the non-IPGTT experimental streams (no anesthesia).

human pancreatic islets = test: Insulin secretion in human pancreatic islets; format: cell-based; settings: peptide 100 nM, glucose absent or 2 to 25 mM
Description: The effects of UAG (1-14) and UAG (1-18), both used at 100 nM, were investigated on insulin secretion in human islets. […] UAG (1-28) and Exendin-4 were used as positive controls (FIGS. 8C and 8D).

EHQRVQ [UAG (8-13)]
cell survival (MTT) (hamster HIT-T15 β-cells): significant protective effect at all the concentrations examined; also recorded: strongly effective in increasing survival | antiapoptotic effect (cytokine-induced apoptosis) (HIT-T15 β-cells): significantly inhibited apoptosis at 10 and 100 nM; also recorded: strongest antiapoptotic effect

Glu-His-Gln-Arg-Val (EHQRV; listed as Homo Sapiens) [UAG (8-12)]
cell survival (MTT) (hamster HIT-T15 β-cells): strongly effective in increasing survival | antiapoptotic effect (cytokine-induced apoptosis) (HIT-T15 β-cells): some protective effect only at 100 nM; also recorded: strongest antiapoptotic effect

SPEHQRVQ [UAG (6-13), Ser-Pro-Glu-His-Gln-Arg-Val-Gln]
cell survival (MTT) (hamster HIT-T15 β-cells): potently inhibited cytokine-induced cell death; also recorded: strongly effective in increasing survival | increase of cell survival (hamster HIT-T15 β-cells; 1 nM): ≈ 18% | increase of cell survival (hamster HIT-T15 β-cells; 100 nM): ≈ 30% | antiapoptotic effect (cytokine-induced apoptosis) (HIT-T15 β-cells): significantly reduced cytokine-induced apoptosis; also recorded: strongest antiapoptotic effect | cell number and morphology with respect to cytokine condition (HIT-T15 β-cells; cytokine-treated, data not shown): increased the number of cells, induced cell enlargement and small islets formation | gonadal fat weight over the period of treatment (ob/ob mice; mouse, in vivo): did not cause an increase in gonadal fat weight | decrease of gonadal fat pad weight relative to saline treated controls (ob/ob mice; period of treatment (4 weeks), trend p<0.06): approximately 7% | suppression of fasting glucose concentrations from saline treated controls (ob/ob mice; week 4): This effect remained at week 4 | fed plasma glucose levels relative to saline controls (ob/ob mice; weeks 2 and 4, no statistically significant effects (RM-ANOVA)): consistent suppressive effect | binding to the UAG receptor [1]: highest binding activity | binding to the UAG receptor [2]: highest binding activity | animal survival rate ([3]; 30 nmol/l (STZ alone ≈52%)): ≈ 71% | animal survival rate ([3]; 100 nmol/l (STZ alone ≈52%)): 89% | reduction of plasma glucose vs. STZ group ([3]; day 70, 30 nmol/l): 31% | reduction of plasma glucose vs. STZ group ([3]; day 70, 100 nmol/l): 14% | plasma insulin levels ([3]; day 70, STZ-treated rats, UAG (6-13) at both concentrations): increasing insulin levels

Ser-Pro-Glu-His-Gln-Arg-Val-Gln (cyclic) (SPEHQRVQ; cyclic; (1)..(8) Cyclic; listed as Homo sapiens) [cyclic UAG (6-13)]
body weight gain ([4]; HFD, 4 nmol/kg/hr sc. infusion, compared to saline-HFD): suppressed body weight gain | glucose levels in fasting or fed state ([4]; HFD, pre-diabetic, normoglycemic conditions): does not significantly affect glucose levels | HFD-induced insulin resistance (insulin tolerance test, area above the glucose curve) ([4]; IPITT, HFD): restores insulin resistance to a level that is comparable to ND control | HFD-induced glucose intolerance (IPGTT) ([4]; after 2 weeks on the HFD): prevents glucose intolerance | reduction of eWAT normalized for body weight ([4]; at 4 weeks, HFD): about 28% | weight of epididymal white adipose tissue (eWAT) ([4]; at 4 weeks, HFD): lower than that of the control mice fed on the HFD

UAG (1-13): fragment named only in b101 as binding to the UAG receptor; possibly a misprint (GSSFLSPEHQRVQ)
binding to the UAG receptor [1]: recognized and bound | binding to the UAG receptor [2]: recognized and bound

exendin-4 [reference compound]
insulin secretion (human pancreatic islets): significantly increased insulin secretion both in the absence and presence of glucose
